Legend:
[1] = tested on: A549-ACE2 infected with SARS-CoV-2; test: cell count relative to DMSO; higher = less toxic; conditions: 24 h
Calu-3 [2] = test: cell viability relative to DMSO; higher = less toxic; conditions: 72 h
Caco-2 [3] = test: as above; conditions: 72 h
Vero E6 [4] = test: as above; conditions: 72 h
U2OS [5] = test: as above; conditions: 72 h
HepG2 [6] = test: as above; conditions: 72 h
Calu-3 [7] = test: drug sensitivity score (DSS) for viability; higher = more toxic; extreme values may be limits of the assay; conditions: 72 h
Caco-2 [8] = test: as above; conditions: 72 h
Vero E6 [9] = test: as above; conditions: 72 h
U2OS [10] = test: as above; conditions: 72 h
HepG2 [11] = test: as above; conditions: 72 h
A549-ACE2 [12] = test: drug-induced phospholipidosis relative to tamoxifen; higher = more phospholipidosis
[13] = tested on: A549-ACE2 infected with SARS-CoV-2; test: SARS-CoV-2 infection rate relative to DMSO; higher = more infection; conditions: 24 h
[14] = tested on: A549-ACE2 infected with SARS-CoV-2; test: morphology score (similarity to uninfected cells); higher = more like uninfected cells; conditions: 24 h
Vero E6 [15] = test: relative viability EC50 (midpoint between 100% and the lowest measured viability); higher = less toxic; conditions: 72 h
HepG2 [16] = test: as above; conditions: 72 h
A549-ACE2 [17] = test: phospholipidosis EC50; higher = less potent phospholipidosis inducer; conditions: 24 h
Calu-3 [18] = test: relative viability EC50 (midpoint between 100% and the lowest measured viability); higher = less toxic; conditions: 72 h
Caco-2 [19] = test: as above; conditions: 72 h

CC(C)Oc1ccc(-c2nc(-c3cccc4c3CC[C@@H]4NCCO)no2)cc1C#N [ozanimod]
Conditions | SARS-CoV-2 infection rate, [13] [%] | cell count, [1] [%] | cell viability, Caco-2 [3] [%] | cell viability, Calu-3 [2] [%] | cell viability, HepG2 [6] [%] | cell viability, U2OS [5] [%] | cell viability, Vero E6 [4] [%] | morphology score, [14]
1 nM | – | – | 95.2 | 94.5 | 120 | 95.2 | 103 | –
10 nM | – | – | 75.2 | 87.2 | 101 | 105 | 96.1 | –
0.1 µM | 96 | 104 | – | – | – | – | – | 0.14
100 nM | – | – | 69.7 | 93.3 | 106 | 94.9 | 102 | –
0.3 µM | 111 | 100 | – | – | – | – | – | 0.03
1 µM | 91 | 100 | – | – | – | – | – | 0.33
1000 nM | – | – | 77.6 | 96.6 | 100 | 97.8 | 103 | –
3 µM | 44 | 114 | – | – | – | – | – | 0.77
10000 nM | – | – | 73 | 73.1 | 44.4 | 72.2 | 76.7 | –

Conditions | drug sensitivity score | relative viability EC50
Caco-2 [8] | 12.1 | –
Calu-3 [7] | 1.6 | –
HepG2 [11] | 3 | –
HepG2 [16] | – | 3170 nM
U2OS [10] | 1.5 | –
Vero E6 [9] | 0.6 | –
Vero E6 [15] | – | > 10 µM

drug-induced phospholipidosis [%], A549-ACE2 [12]
Conditions | 0.3 µM | 0.833333 µM | 3.33333 µM | 6.66667 µM | 10 µM
24 h | 6.09 | 18 | 72.5 | 83.5 | 92.3
48 h | -8.87 | 1.18 | 67.1 | 90.1 | 96.7
72 h | -6.97 | 0.974 | 62.1 | 108 | 122

O=S(=O)(NCC1CC1)c1ccc(Nc2nccc(N3CCCc4cc(O)ccc43)n2)cc1 [pyrintegrin]
Conditions | SARS-CoV-2 infection rate, [13] [%] | cell count, [1] [%] | cell viability, Caco-2 [3] [%] | cell viability, Calu-3 [2] [%] | cell viability, HepG2 [6] [%] | cell viability, U2OS [5] [%] | cell viability, Vero E6 [4] [%] | morphology score, [14]
1 nM | – | – | 98.1 | 95.5 | 102 | 99 | 90.5 | –
10 nM | – | – | 102 | 89.7 | 103 | 97 | 93.9 | –
0.1 µM | 104 | 104 | – | – | – | – | – | 0.18
100 nM | – | – | 100 | 92.8 | 107 | 97.8 | 98.9 | –
0.3 µM | 103 | 106 | – | – | – | – | – | 0.28
1 µM | 81 | 107 | – | – | – | – | – | 0.52
1000 nM | – | – | 110 | 102 | 66.6 | 96 | 98.3 | –
3 µM | 60 | 86 | – | – | – | – | – | 0.4
10000 nM | – | – | 86.2 | 85 | 15.5 | 62.4 | 75.3 | –

Conditions | drug sensitivity score | phospholipidosis EC50 [nM] | relative viability EC50
A549-ACE2 [17] | – | 1910 | –
Caco-2 [8] | 0 | – | –
Caco-2 [19] | – | – | > 10 µM
Calu-3 [7] | 0.1 | – | –
Calu-3 [18] | – | – | > 10 µM
HepG2 [11] | 9.2 | – | –
HepG2 [16] | – | – | 1190 nM
U2OS [10] | 2.5 | – | –
Vero E6 [9] | 1.2 | – | –
Vero E6 [15] | – | – | > 10 µM

drug-induced phospholipidosis [%], A549-ACE2 [12]
Conditions | 0.3 µM | 0.833333 µM | 3.33333 µM | 6.66667 µM | 10 µM
24 h | 5.15 | 22.5 | 132 | 178 | 150
48 h | 3.16 | 12.3 | 135 | – | –
72 h | 2.43 | 7.41 | – | – | –

Reference: the supplement of paper PMC13380429
